Experimental data from PubChem BioAssay AID1963985 (Molecular Pharmacology Branch, DTP, NCI, 2024).

Test system: 252836-082-R-J2-PDC tumor spheroids, viability
Test: Anticancer human tumor 252836-082-R-J2-PDC patient-derived head and neck squamous cell carcinoma cell line growth inhibition [PI3K]
Settings: spheroids with HUVEC and MSC; for IC50: curve of first compound; for viability, T/C: stronger effect = lower value
Description: Combinatorial screen of targeted agents with the PI3K inhibitors inavolisib, alpelisib, duvelisib, and copanlisib in multi-cell type tumor spheroids
A high-throughput screen of multi-cell type tumor spheroids was designed to identify active combinations of targeted small molecules and PI3K pathway inhibitors. Complex spheroids include a stromal component modeled by human endothelial cells (HUVEC) and fibroblasts modeled by human mesenchymal stem cells (MSCs). The concentration ranges selected for each drug and investigational agent were based upon clinically achievable concentrations if the clinical Cmax of the agent was known.
Compounds. The drugs and investigational agents: inavolisib (NSC800729), alpelisib (NSC765974), duvelisib (NSC772469), copanlisib (NSC816437), ipatasertib (NSC767898), afuresertib (NSC778305), talazoparib (NSC767125), sapanisertib (NSC764658), selumetinib (NSC741078), tovorafenib (DAY101, NSC766906), vemurafenib (NSC761431), ravoxertinib (NSC781343), sotorasib (NSC818433), MRTX1133 (NSC 836407), abemaciclib (NSC 768073), palbociclib (NSC758247), venetoclax (NSC 766270), SY5609 (NSC837396), enzalutamide (NSC755605), and darolutamide (NSC825331), were obtained from the National Cancer Institute (NCI) Developmental Therapeutics Program Chemical Repository. The FDA-approved anticancer drug set is available from the NCI Developmental Therapeutics Program. […] The stock solutions were prepared in dimethyl sulfoxide (DMSO, Sigma-Aldrich, St. Louis, MO, cat. D2650) at 800-fold the tested concentration and stored at -70 degrees C prior to their use. All drugs and investigational agents were tested over a range starting from a high concentration at or near the clinical Cmax and decreasing in half-log increments. If the clinical Cmax for an agent had not been determined, the highest concentration tested was 10 microM.
Cell Culture. All cells were maintained in an incubator at 37 degrees C and 5% CO2 with 95% humidity. The PDC lines were cultured according to standard operating procedures established by the NCI PDMR (https://pdmr.cancer.gov/sops/default.htm). All PDCs were thawed and cultured in Matrigel-coated flasks prepared with a working solution of 1X Ham's F-12 nutrient mix, without supplementation (Invitrogen, Waltham, MA, cat. 11765054), 100 U/mL penicillin-streptomycin (Invitrogen, cat. 15140122), and 2.5% Matrigel (Corning Inc., Corning, NY, cat. 354248) for the first three passages. The 354836-022-R-J1-PDC, 475296-252-R-J1-PDC, and 997726-040-R-J2-PDC lines were cultured in 6A media, which includes advanced DMEM/F-12 (Thermo Fisher Scientific, cat. 12634028), 10 mM HEPES (Thermo Fisher Scientific, cat. 15630080), 1X GlutaMAX supplement (Thermo Fisher Scientific, cat. 35050061), 0.1 mg/mL primocin (InvivoGen, San Diego, CA, cat. ant-pm-2), 10% defined fetal bovine serum, heat inactivated (HyClone Laboratories Inc., Logan, UT, cat. SH30070.03HI), 50% L-WRN conditioned media (ATCC, cat. CRL-3276), 1.25 mM N-Acetyl-L-cysteine (Sigma-Aldrich, cat. A9165), 10 mM nicotinamide (Sigma-Aldrich, cat. N0636), 1X B-27 supplement (Thermo Fisher Scientific, cat. 17504044), 1X N-2 supplement (Thermo Fisher Scientific, cat. 17502048), and 10 microM Y-27632 dihydrochloride (Tocris Bioscience, Bristol, United Kingdom, cat. 1254). The 624824-186-R-J2-PDC line was cultured in 6C/Colon 1B media, which includes all 6A media components plus 50 ng/mL human EGF recombinant protein (Thermo Fisher Scientific, cat. PHG0311). […]

[1] = second compound 0.0316 µM, first compound 0.00949 µM
[2] = second compound 0.0316 µM, first compound 0.03 µM
[3] = second compound 0.0316 µM, first compound 0.0949 µM
[4] = second compound 0.0316 µM, first compound 0.3 µM
[5] = second compound 0.0316 µM, first compound 0.949 µM
[6] = second compound 0.0316 µM, first compound 3 µM
[7] = second compound 0.1 µM, first compound 0.00949 µM
[8] = second compound 0.1 µM, first compound 0.03 µM
[9] = second compound 0.1 µM, first compound 0.0949 µM
[10] = second compound 0.1 µM, first compound 0.3 µM
[11] = second compound 0.1 µM, first compound 0.949 µM
[12] = second compound 0.1 µM, first compound 3 µM
[13] = second compound 0.316 µM, first compound 0.00949 µM
[14] = second compound 0.316 µM, first compound 0.03 µM
[15] = second compound 0.316 µM, first compound 0.0949 µM
[16] = second compound 0.316 µM, first compound 0.3 µM
[17] = second compound 0.316 µM, first compound 0.949 µM
[18] = second compound 0.316 µM, first compound 3 µM
[19] = second compound 1 µM, first compound 0.00949 µM
[20] = second compound 1 µM, first compound 0.03 µM
[21] = second compound 1 µM, first compound 0.0949 µM
[22] = second compound 1 µM, first compound 0.3 µM
[23] = second compound 1 µM, first compound 0.949 µM
[24] = second compound 1 µM, first compound 3 µM
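Further: spheroids exposed to agents for seven days before readout.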
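Wherever viability, T/C is given: percent of vehicle DMSO control viability so 100% = untreated growth.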

Cn1cnc2c(F)c(Nc3ccc(Br)cc3Cl)c(C(=O)NOCCO)cc21 + COc1c(OCCCN2CCOCC2)ccc2c3n(c(=NC(=O)c4cnc(N)nc4)nc12)CCN3
IC50 (second compound 0.00316 µM): 2050 nM | IC50 (second compound 0.01 µM): 1070 nM | IC50 (second compound 0.0316 µM): 78.4 nM | IC50 (second compound 0.1 µM): < 9.49 nM | IC50 (second compound 0.316 µM): < 9.49 nM | IC50 (second compound 1 µM): < 9.49 nM | viability, T/C (second compound 0.00316 µM, first compound 0.00949 µM): 91.6% | viability, T/C (second compound 0.00316 µM, first compound 0.03 µM): 71.5% | viability, T/C (second compound 0.00316 µM, first compound 0.0949 µM): 82.4% | viability, T/C (second compound 0.00316 µM, first compound 0.3 µM): 80.4% | viability, T/C (second compound 0.00316 µM, first compound 0.949 µM): 75.3% | viability, T/C (second compound 0.00316 µM, first compound 3 µM): 37.5% | viability, T/C (second compound 0.01 µM, first compound 0.00949 µM): 73.5% | viability, T/C (second compound 0.01 µM, first compound 0.03 µM): 70.3% | viability, T/C (second compound 0.01 µM, first compound 0.0949 µM): 76.7% | viability, T/C (second compound 0.01 µM, first compound 0.3 µM): 65.2% | viability, T/C (second compound 0.01 µM, first compound 0.949 µM): 52.1% | viability, T/C (second compound 0.01 µM, first compound 3 µM): 35.5% | viability, T/C [1]: 59.6% | viability, T/C [2]: 48.8% | viability, T/C [3]: 49% | viability, T/C [4]: 46.2% | viability, T/C [5]: 34.1% | viability, T/C [6]: 25.1% | viability, T/C [7]: 31.6% | viability, T/C [8]: 33.3% | viability, T/C [9]: 33.1% | viability, T/C [10]: 29.5% | viability, T/C [11]: 18% | viability, T/C [12]: 7.77% | viability, T/C [13]: 14.8% | viability, T/C [14]: 12.2% | viability, T/C [15]: 9.2% | viability, T/C [16]: 7.79% | viability, T/C [17]: 3.35% | viability, T/C [18]: 0.38% | viability, T/C [19]: 2.53% | viability, T/C [20]: 2.17% | viability, T/C [21]: 2.32% | viability, T/C [22]: 0.64% | viability, T/C [23]: 3.69% | viability, T/C [24]: 0.18%

Cn1cnc2c(F)c(Nc3ccc(Br)cc3Cl)c(C(=O)NOCCO)cc21 + CC(Nc1ncnc2nc[nH]c12)c1cc2cccc(Cl)c2c(=O)n1-c1ccccc1
IC50 (second compound 0.0316 µM): 2200 nM | IC50 (second compound 0.1 µM): 2800 nM | IC50 (second compound 0.316 µM): 2610 nM | IC50 (second compound 1 µM): 2100 nM | IC50 (second compound 3.16 µM): 1480 nM | IC50 (second compound 10 µM): 923 nM | viability, T/C [1]: 102% | viability, T/C [2]: 76.5% | viability, T/C [3]: 81.5% | viability, T/C [4]: 92.7% | viability, T/C [5]: 65.5% | viability, T/C [6]: 44.2% | viability, T/C [7]: 89.9% | viability, T/C [8]: 77.2% | viability, T/C [9]: 88.8% | viability, T/C [10]: 95.3% | viability, T/C [11]: 74.5% | viability, T/C [12]: 48.4% | viability, T/C [13]: 88% | viability, T/C [14]: 87.2% | viability, T/C [15]: 88.6% | viability, T/C [16]: 79.3% | viability, T/C [17]: 77.1% | viability, T/C [18]: 46% | viability, T/C [19]: 89.8% | viability, T/C [20]: 77.3% | viability, T/C [21]: 85.3% | viability, T/C [22]: 75.6% | viability, T/C [23]: 72% | viability, T/C [24]: 40.4% | viability, T/C (second compound 3.16 µM, first compound 0.00949 µM): 82.1% | viability, T/C (second compound 3.16 µM, first compound 0.03 µM): 78.5% | viability, T/C (second compound 3.16 µM, first compound 0.0949 µM): 64.6% | viability, T/C (second compound 3.16 µM, first compound 0.3 µM): 66% | viability, T/C (second compound 3.16 µM, first compound 0.949 µM): 61.3% | viability, T/C (second compound 3.16 µM, first compound 3 µM): 38.6% | viability, T/C (second compound 10 µM, first compound 0.00949 µM): 67.3% | viability, T/C (second compound 10 µM, first compound 0.03 µM): 67.1% | viability, T/C (second compound 10 µM, first compound 0.0949 µM): 64.2% | viability, T/C (second compound 10 µM, first compound 0.3 µM): 54.4% | viability, T/C (second compound 10 µM, first compound 0.949 µM): 53.6% | viability, T/C (second compound 10 µM, first compound 3 µM): 31.4%
